{"source": "patent US20250041383A1", "about": "“MODIFIED CAVEOLIN-1 PEPTIDES FOR THE TREATMENT OF POST-ACUTE COVID-19” (priority 2021, published 2025)", "origin": "cited, not measured here", "system": "lung", "conditions": "treatment with the CSP 20-mer; literature", "note": "Ends that are not written are not given here.", "data": [{"sequence": "DGIWKASFTTFTVTKYWFYR (not fully specified) [CSP 20-mer, the full-length CSD of caveolin-1, amino acids 82-101]", "values": [{"measurement": "collagen deposition", "value": "reduced"}, {"measurement": "expression of profibrogenic signaling molecules", "value": "down-regulation"}, {"measurement": "lung aSMA", "value": "reduced"}, {"measurement": "lung epithelial apoptosis", "value": "reduced"}]}]}
